Assay results as given in patent publication US5039684A, “Tetrazole amide derivatives of heterocyclic alkenyl acid and their use as antiallergic substances” (Valeas S. p. A., priority 1989, dated 1991).
Read-outs that look alike come from different tables or passages of the source.

What was measured:
[1] = tested on: passive cutaneous anaphylaxis; test: PCA test on the rat, intravenous administration just before challenge with antigen; type: in vivo, rat (male Sprague Dawley); details: immediately before challenge; for inhibition (%) / ED50 (conf. lim) P = 0.05: i.v.; for ED50: read-out: ED50 (conf. lim) P = 0.05
Description: (§1) The serum, obtained from rats actively sensitized with ovalbumin (antigen) and suitably diluted, was injected intradermically into the shaven back of male Sprague Dawley rats (2 wheals per rat).
(§2) The rats were treated intravenously after 24 hours with a solution of ovalbumin and Evans blue. Thirty minutes later they were killed and the diameter and intensity of the blue ring formed at the site of the intradermic injection were measured.
(§3) For each treated group (5 per group) the % inhibition was then calculated with respect to the control group.
The pharmacological screening was effected by administering the compounds of the present invention intravenously and orally.
(§4) For intravenous administration (2 ml/kg), those compounds in which R1 =H (see formula I) were dissolved in an aqueous 1% NaHCO3 solution whereas for oral administration (4 ml/Kg) they were either suspended in 0.5% carboxymethylcellulose or dissolved in an aqueous 3% NaHCO3 solution.

[2] = in vivo; cited from earlier work
[3] = tested on: passive cutaneous anaphylaxis; test: PCA test on the rat, oral administration before challenge with antigen; type: in vivo, rat (male Sprague Dawley); details: for ED50: Table 2, oral administration, read-out: ED50 (conf. lim) P = 0.05; for oral bioavailability (in words): from ED50 os / ED50 iv comparison; for ED50 OS/ED50 iv: oral 5 minutes before challenge / i.v. immediately before challenge
Description: The serum, obtained from rats actively sensitized with ovalbumin (antigen) and suitably diluted, was injected intradermically into the shaven back of male Sprague Dawley rats (2 wheals per rat). The rats were treated intravenously after 24 hours with a solution of ovalbumin and Evans blue. Thirty minutes later they were killed and the diameter and intensity of the blue ring formed at the site of the intradermic injection were measured. […] The pharmacological screening was effected by administering the compounds of the present invention intravenously and orally. For intravenous administration (2 ml/kg), those compounds in which R1 =H (see formula I) were dissolved in an aqueous 1% NaHCO3 solution whereas for oral administration (4 ml/Kg) they were either suspended in 0.5% carboxymethylcellulose or dissolved in an aqueous 3% NaHCO3 solution.

[4] = tested on: passive cutaneous anaphylaxis; test: PCA test on the rat, time response curve after oral administration; type: in vivo, rat (male Sprague Dawley); details: oral; for inhibition in vivo at 1 mg/kg / inhibition in vivo at 100 mg/kg / inhibition in vivo at 10 mg/kg: Rattus norvegicus; for inhibition in vivo at 1 mg/kg: 1 mg/kg/os; for inhibition in vivo at 100 mg/kg: 100 mg/kg/os; for inhibition in vivo at 10 mg/kg: 10 mg/kg/os
Description: as §1, §2, §3, §4

[5] = Acute toxicity in the mouse, oral administration; type: in vivo; details: mouse, in vivo, po, 1000 mg/kg, oral, 1000 mg/kg/os; read-out: mortality (%EAD)
Description: (§5) Acute toxicity was evaluated in the mouse by administering the compounds orally at scalar doses to a maximum of 1000 mg/kg to evaluate the 50% lethal dose (LD50). The compounds were administered in carboxymethylcellulose (0.5%) in a volume of […] to male mice (Swiss stock) of average weight 20 g.

mouse = test: Acute toxicity in the mouse, oral administration; type: in vivo
Description: as §5

[6] = tested on: passive cutaneous anaphylaxis; details: oral, cited from earlier work
[7] = Rattus norvegicus, po, 5 minutes before challenge
[8] = Rattus norvegicus, po, 5 minutes before challenge, read-out: inhibition (%)
[9] = Rattus norvegicus, po, 5 min, 5 minutes before challenge
[10] = 5 min, 5 minutes before challenge
[11] = 0.25 h, 15 minutes before challenge
[12] = 0.5 h, 30 minutes before challenge
[13] = 1 h, 60 minutes before challenge
[14] = 2 h, 120 minutes before challenge

O=C([O-])c1cc(=O)c2c(OCC(O)COc3cccc4oc(C(=O)[O-])cc(=O)c34)cccc2o1.[Na+].[Na+] [DSCG, Disodium chromoglycate, reference compound]
inhibition (%) ([1]; 0.1 mg/kg): 28.1% | inhibition (%) ([1]; 0.3 mg/kg): 33.6% | inhibition (%) ([1]; 1 mg/kg): 70.0% | inhibition (%) ([1]; 3 mg/kg): 100% | ED50 (conf. lim) P = 0.05 [1]: 0.52 mg/kg/iv | ED50 (conf. lim) P = 0.05 ([1]; listed as D.S.C.G.): 0.52 (0.47-0.83) mg/kg/iv | absorption at the gastro-enteric level [2]: not being absorbed at the gastro-enteric level

Cc1cccc(C(=O)Nc2nn[nH]n2)n1 [TA 57-07, 6-methyl-N-(1H-tetrazol-5-yl)-2-pyridinecarboxyamide, reference compound]
ED50 ([1]; Rattus norvegicus, iv): 0.059 mg/kg | inhibition in vivo at 0.3 mg/kg ([3]; Rattus norvegicus, po, 0.3 mg/kg, 5 minutes before challenge): 12.7% | inhibition in vivo at 1 mg/kg [3, 7]: 57.7% | inhibition in vivo at 3 mg/kg [3, 8]: 82.5% | ED50 [3, 9]: 0.93 mg/kg | oral bioavailability (in words) [3]: less bioavailable when administered orally than the compounds of the present invention | ED50 OS/ED50 iv [3]: 15.76 | inhibition in vivo at 1 mg/kg [4, 10]: 86.8% | inhibition in vivo at 1 mg/kg [4, 11]: 43.7% | inhibition in vivo at 1 mg/kg [4, 12]: 37.6% | inhibition in vivo at 1 mg/kg [4, 13]: 17.3% | inhibition in vivo at 1 mg/kg [4, 14]: 4.1% | mortality [5]: 50% | No. (dead) (mouse; oral, 1000 mg/kg/os, 8 treated): 4 | ED50 ([6]; 5 minutes before challenge, Tsuzurahara et al.): 0.9 (0.6-1.6) mg/kg/os

COc1ccc(/C=C/C(=O)Nc2ccccc2C(=O)O)cc1OC [Tranilast, N-(3', 4'-dimethoxycinnamoyl) anthranylic acid, reference compound]
ED50 ([3]; Rattus norvegicus, po, 0.25 h, 15 minutes before challenge): 115 mg/kg | oral bioavailability (in words) [3]: less bioavailable when administered orally than the compounds of the present invention | activity compared with Tranilast / compounds of the invention (in words) ([3]; oral): less active by at least one order of magnitude | inhibition in vivo at 100 mg/kg [4, 10]: 17.9% | inhibition in vivo at 100 mg/kg [4, 11]: 37.4% | inhibition in vivo at 100 mg/kg [4, 12]: 20.5% | inhibition in vivo at 100 mg/kg [4, 13]: 20.5% | inhibition in vivo at 100 mg/kg [4, 14]: 13.7% | time of administration before challenge giving the peak (maximum) effect [4]: 15 min | mortality [5]: 87.5% | No. (dead) (mouse; oral, 1000 mg/kg/os, 8 treated): 7 | ED50 ([6]; 2 hours before challenge, Koda et al.): 150 (88, 3-255) mg/kg/os

O=C(/C=C/c1ccccn1)Nc1nn[nH]n1 [VAL 47-055, N-1H-tetrazol-5-yl-[3-(2-pyridyl)]-acrylamide trans isomer]
inhibition in vivo at 0.3 mg/kg ([1]; Rattus norvegicus, iv, 0.3 mg/kg, read-out: inhibition (%)): 5.6% | inhibition in vivo at 1 mg/kg ([1]; Rattus norvegicus, iv, 1 mg/kg, read-out: inhibition (%)): 47.5% | inhibition in vivo at 3 mg/kg ([1]; Rattus norvegicus, iv, 3 mg/kg): 85.9% | ED50 ([1]; Rattus norvegicus, iv): 1.54 mg/kg | inhibition in vivo at 1 mg/kg [3, 7]: 22.5% | inhibition in vivo at 3 mg/kg [3, 8]: 28.3% | inhibition in vivo at 10 mg/kg ([3]; Rattus norvegicus, po, 10 mg/kg, 5 minutes before challenge, read-out: inhibition (%)): 52.9% | inhibition in vivo at 30 mg/kg ([3]; Rattus norvegicus, po, 30 mg/kg, 5 minutes before challenge, read-out: inhibition (%)): 81% | ED50 [3, 9]: 7.94 mg/kg | ED50 OS/ED50 iv [3]: 5.15 | inhibition in vivo at 10 mg/kg [4, 10]: 45.6% | inhibition in vivo at 10 mg/kg [4, 11]: 0.5% | inhibition in vivo at 10 mg/kg [4, 12]: 0% | inhibition in vivo at 10 mg/kg [4, 13]: 4.7% | inhibition in vivo at 10 mg/kg [4, 14]: 0% | mortality [5]: 0% | No. (dead) (mouse; mouse, in vivo, po, 1000 mg/kg): 0
